These results are taken from patent US8435983B2, “Conformationally restrained epothilone analogues as anti-leukemic agents” (The University of Toledo, priority 2007, dated 2013).

SMILES strings stand for the structures. Where two headings read alike, the source gives them in different places.

As usually defined, the GI50 is the concentration that inhibits growth by half.

The subject of experiment [1] is BCF-7 breast cancer cells. Kind of experiment: preliminary growth inhibition assay on BCF-7 breast cancer cells. The class given is cell-based.
The subject of experiment [2] is NCI 60 human tumor cell lines, including breast cancer and ovarian cancer cell lines. Kind of experiment: NCI in vitro 60 cell line human tumor screen, cell line panel. Format: cell-based.
The test system of experiment [3] is CCRF-CEM leukemia cell line. In words: NCI in vitro 60 cell line human tumor screen, CCRF-CEM. The conditions noted are these: NCI 60 cell line screen. Format: cell-based.
Experiment [4] concerns SR leukemia cell line. Kind of experiment: NCI in vitro 60 cell line human tumor screen, SR. Format: cell-based. The note with it: NCI 60 cell line screen.
Experiment [5] deals with CCRF-CEM leukemia cell line. The note with it: comparison value for paclitaxel; cited from earlier work.
The test system of experiment [6] is SR leukemia cell line. The conditions noted are these: comparison value for paclitaxel; cited from earlier work.

Consider `CC1=C(c2ccccc2)C[C@H]2/C=C(/C)CCC[C@H](C)[C@H](O)[C@@H](C)C(=O)C(C)(C)[C@@H](O)CC(=O)O[C@H]12` [Compound 1a], for which the growth inhibition result in experiment [1] is on record as “no activity”.
Consider `C=C(C)CCC[C@H](C)[C@H](O)[C@@H](C)C(=O)C(C)(C)[C@@H](O)CC(=O)O[C@@H]1C(C)=C(c2ccc(C)cn2)C[C@H]1/C=C/c1ccccc1` [Compound 35, 3,7-Dihydroxy-4,4,6,8,12-pentamethyl-5-oxo-tridec-12-enoic acid 2-methyl-3-(5-methyl-pyridin-2-yl)-5-styryl-cyclopent-2-enyl ester], for which the “activity in the NCI 60 cell line assay” value in experiment [2] (any of the cell lines) is reported as “no significant activity”.
On to `CC1=C(c2ccc(C)cn2)C[C@H]2/C=C(/C)CCC[C@H](C)[C@H](O)[C@@H](C)C(=O)C(C)(C)[C@@H](O)CC(=O)O[C@H]12` [Compound 1b, (3S,6R,7S,8S,1′S,5′S)-7,11-Dihydroxy-3,8,8,10,12,16-hexamethyl-2-(5-methyl-pyridin-2-yl)-3a,7,8,10,11,12,13,14,15,17a-decahydro-1H,6H-4-oxa-cyclopentacyclohexadecene-5,9-dione], for which the values for the GI50 (in experiment [3]; with SR leukemia cell line [4]) were 2.7 nM and 2.9 nM, respectively. The “growth inhibitory activity on the other NCI 60 cell lines” value in experiment [2] (all lines other than CCRF-CEM and SR, including breast cancer and ovarian cancer cell lines) was “no significant activity”.
Regarding `CC(=O)O[C@H]1C(=O)[C@@]2(C)[C@H]([C@H](OC(=O)c3ccccc3)[C@]3(O)C[C@H](OC(=O)[C@H](O)[C@@H](NC(=O)c4ccccc4)c4ccccc4)C(C)=C1C3(C)C)[C@]1(OC(C)=O)CO[C@@H]1C[C@@H]2O` [paclitaxel], the GI50 in experiment [5] was 12.6 nM; with SR leukemia cell line [6], 15.8 nM.
